Numbers after ± are expanded uncertainties.
Assays:
[1] = for mass density: 348.15 K, 101.33 kPa, Liquid, Vibrating tube method; for Normal melting temperature: Crystal, DTA
[2] = Boiling temperature at pressure P; conditions: Liquid, Ebulliometric method (Recirculating still)
[3] = Molar enthalpy of transition or fusion; conditions: Crystal; DSC

O=[N+]([O-])c1cccc(Cl)c1Cl [1,2-dichloro-3-nitrobenzene]
Conditions	Molar enthalpy of transition or fusion [kcal/mol]	Normal melting temperature [°C]	mass density [kg/m3]
[1]	–	61.8 ± 1.1	1533 ± 2
[3]	5.33 ± 0.335	–	–

[2]
Conditions	Boiling temperature at pressure P [°C]
3.26 kPa	148.61 ± 0.39
3.72 kPa	151.73 ± 0.37
4.07 kPa	153.89 ± 0.35
5.48 kPa	161.26 ± 0.29
6.14 kPa	164.16 ± 0.24
7.17 kPa	168.22 ± 0.21
8.84 kPa	174 ± 0.19
10.02 kPa	177.31 ± 0.16
11.41 kPa	180.98 ± 0.15
12.61 kPa	183.86 ± 0.14
13.71 kPa	186.30 ± 0.13
15.55 kPa	190.1 ± 0.12
16.52 kPa	191.88 ± 0.11
18.33 kPa	195.16 ± 0.11
20.52 kPa	198.69 ± 0.1
21.66 kPa	200.30 ± 0.09
22.76 kPa	201.89 ± 0.09
25.1 kPa	205.06 ± 0.09
27.58 kPa	208.17 ± 0.08
30.63 kPa	211.69 ± 0.08
35.11 kPa	216.38 ± 0.07
40.91 kPa	221.76 ± 0.07
46.97 kPa	226.77 ± 0.06
50.86 kPa	229.71 ± 0.06
54.85 kPa	232.54 ± 0.06
57.81 kPa	234.64 ± 0.06
61.11 kPa	236.77 ± 0.06
63.43 kPa	238.11 ± 0.05
65.25 kPa	239.22 ± 0.05
70.98 kPa	242.53 ± 0.05
76.92 kPa	245.8 ± 0.05
80.62 kPa	247.66 ± 0.05
85.76 kPa	250.19 ± 0.05
91.3 kPa	252.79 ± 0.05
96.08 kPa	254.94 ± 0.05
101.3 kPa	257.18 ± 0.05

O=[N+]([O-])c1ccc(Cl)c(Cl)c1 [3,4-dichloro-1-nitrobenzene]
Conditions	Molar enthalpy of transition or fusion [kcal/mol]	Normal melting temperature [°C]	mass density [kg/m3]
[1]	–	42.2 ± 1.1	1533 ± 2
[3]	4.24 ± 0.263	–	–

[2]
Conditions	Boiling temperature at pressure P [°C]
3.01 kPa	143.59 ± 0.39
4.22 kPa	151.87 ± 0.37
4.98 kPa	156.10 ± 0.3
5.82 kPa	160.09 ± 0.26
6.97 kPa	164.90 ± 0.24
7.4 kPa	166.54 ± 0.2
9.08 kPa	172.28 ± 0.19
9.77 kPa	174.29 ± 0.16
11.5 kPa	178.94 ± 0.16
12.15 kPa	180.66 ± 0.14
13.41 kPa	183.46 ± 0.13
15.01 kPa	186.98 ± 0.13
16.24 kPa	189.28 ± 0.12
17.48 kPa	191.66 ± 0.11
19.68 kPa	195.37 ± 0.1
21.06 kPa	197.53 ± 0.1
24.35 kPa	202.28 ± 0.09
25.56 kPa	203.78 ± 0.09
26.76 kPa	205.32 ± 0.08
31.46 kPa	210.79 ± 0.08
34.27 kPa	213.8 ± 0.08
36.87 kPa	216.33 ± 0.07
41.72 kPa	220.8 ± 0.07
45.99 kPa	224.32 ± 0.07
51.49 kPa	228.52 ± 0.06
55.34 kPa	231.23 ± 0.06
61.61 kPa	235.37 ± 0.06
65.28 kPa	237.58 ± 0.06
70.2 kPa	240.51 ± 0.06
74.34 kPa	242.70 ± 0.06
79.67 kPa	245.50 ± 0.06
83.95 kPa	247.64 ± 0.06
89.76 kPa	250.37 ± 0.06
94.77 kPa	252.61 ± 0.06
98.14 kPa	254.08 ± 0.06
101.3 kPa	255.44 ± 0.06
